Assays:
[1] = test system: leaf pieces derived from the tobacco to which the present invention DNA (A1) was introduced; test: Herbicidal damage of tobacco leaf pieces on MS agar medium containing compound (II); format: cell-based, Nicotiana tabacum strain SR1; settings: MS agar medium containing 0.1 mg/L of compound (II), in the light at room temperature, 7th day of culturing
Protocol: Then, according to the method described in Manual for Gene Manipulation of Plant (by Hirofumi UCHIMIYA, Kodan-sha Scientific, 1992), the gene was introduced into tobacco. Agrobacterium strains bearing the above plasmids were each cultured at 28° C. overnight in LB medium containing 300 mg/L streptomycin, 100 mg/L rifampicin and 25 mg/L kanamycin, and then leaf pieces of tobacco (Nicotiana tabacum strain SR1) cultured sterilely were dipped in the liquid culture medium. The leaf pieces were planted and cultured at room temperature for 2 days in the light in MS agar medium (MS inorganic salts, MS vitamins, 3% sucrose and 0.8% agar; described in Murashige T. and Skoog F., Physiol. Plant. (1962) 15, p 473) containing 0.1 mg/L of naphthalene acetic acid and 1.0 mg/L of benzyl aminopurine. Then, the leaf pieces were washed with sterilized water and cultured for 7 days on MS agar medium containing 0.1 mg/L of naphthalene acetic acid, 1.0 mg/L of benzyl aminopurine and 500 mg/L of cefotaxime. Next, the leaf pieces were transplanted and cultured in MS agar medium containing 0.1 mg/L of naphthalene acetic acid, 1.0 mg/L of benzyl aminopurine, 500 mg/L of cefotaxime and 100 mg/L of kanamycin. The culture was conducted continuously for 4 months while transplanting the leaf pieces to fresh medium of the same composition at intervals of 4 weeks. […]

[2] = test system: present invention protein (A13); test: Detection of the ability to convert compound (II) to compound (III), E. coli pKSN474F extract; format: in vitro ADME, Streptomyces thermocoerulesces IFO 14273t; settings: 3 ppm of compound (II) labeled with 14C, components A, B, 10 minutes at 30° C.
Protocol: (§1) Reaction solutions of 30 μl were prepared and maintained for 10 minutes at 30° C. The reaction solutions consisted of a 0.1M potassium phosphate buffer (pH7.0) containing 3 ppm of compound (II) labeled with ^14C, 2 mM of β-NADPH (hereinafter, referred to as “component A”) (Oriental Yeast Company), 2 mg/ml of a ferredoxin derived from spinach (hereinafter referred to as “component B”) (Sigma Company), 0.1 U/ml of ferredoxin reductase (hereinafter, referred to as “component C”) (Sigma Company) and 23 μl of the supernatant fraction recovered in Example 32(2). Similarly to Example 4(3), the reaction solutions after the maintenance were extracted with ethyl acetate and the extracted layers were TLC analyzed. […] A spot corresponding to compound (III) was detected from the reaction solution containing E. coli pKSN849AF extract. In contrast, such a spot was not detected from the reaction solution containing E. coli pKSN2 extract.
(§2) Reaction solutions of 30 μl were prepared and maintained for 10 minutes at 30° C. […] The reaction solutions after the maintenance were extracted with ethyl acetate and the extracted layers were TLC analyzed. […] A spot corresponding to compound (III) was detected from the reaction solution containing E. coli pKSN474F extract. In contrast, such a spot was not detected from the reaction solution containing E. coli pKSN2 extract.

[3] = test system: present invention protein (A14); test: Detection of the ability to convert compound (II) to compound (III), E. coli pKSN1491AF extract; format: in vitro ADME, Streptomyces glomerochromogenes IFO 13673t; settings: 3 ppm of compound (II) labeled with 14C, components A, B, 10 minutes at 30° C.
Protocol: as §1
as §2, with “pKSN1491AF” for “pKSN474F”

[4] = test system: present invention protein (A21); test: Detection of the ability to convert compound (II) to compound (III), E. coli pKSN1543BF extract; format: in vitro ADME, Streptomyces misawanensis IFO 13855T; settings: 3 ppm of compound (II) labeled with 14C, components A, B, 10 minutes at 30° C.
Protocol: as §1
as §2, with “Similarly to Example 32(3), reaction” for “Reaction”, “pKSN1543BF” for “pKSN474F”

[5] = test system: present invention protein (A23); test: Detection of the ability to convert compound (II) to compound (III), E. coli pKSN1584F extract; format: in vitro ADME, Streptomyces roseorubens IFO 13682T; settings: 3 ppm of compound (II) labeled with 14C, components A, B, 10 minutes at 30° C.
Protocol: as §1
as §2, with “Similarly to Example 32(3), reaction” for “Reaction”, “pKSN1584F” for “pKSN474F”

C[C@@H](Oc1cc(-n2c(=O)cc(C(F)(F)F)n(C)c2=O)c(F)cc1Cl)C(=O)O [compound (II)]
herbicidal damage of the leaf pieces [1]: grew continuously | spot corresponding to compound (III) labeled with 14C (TLC) [2]: detected | spot corresponding to compound (III) labeled with 14C (TLC) [3]: detected | spot corresponding to compound (III) labeled with 14C (TLC) [4]: detected | spot corresponding to compound (III) labeled with 14C (TLC) [5]: detected

From patent US8293979B2, “Weed controller metabolism proteins, genes, thereof and use of the same” (Sumitomo Chemical Company, Limited, priority 2001, dated 2012)
